Drawing on BindingDB's records for doi:10.1021/jm00091a006 (University of Arizona, 1992), this text covers IC50 for four molecules.

The nature of this assay: Compound was evaluated for its inhibitory potency against Opioid receptor delta 1 of Guinea pig ileum.

The structures appear in SMILES notation. Some results are limits rather than exact numbers.

On to `Cc1cc(O)ccc1C[C@@H](N)C(=O)N[C@H]1C(=O)NCC(=O)N[C@@H](Cc2ccccc2)C(=O)N[C@@H](C(=O)O)C(C)(C)SSC1(C)C`, for which the half-maximal inhibitory concentration (IC50) stood at 6.61 µM.
With `C[C@H](c1ccc(O)cc1)[C@@H](N)C(=O)N[C@H]1C(=O)NCC(=O)N[C@@H](Cc2ccccc2)C(=O)N[C@@H](C(=O)O)C(C)(C)SSC1(C)C` the figure was > 100 µM; with `C[C@@H](c1ccc(O)cc1)[C@H](N)C(=O)N[C@H]1C(=O)NCC(=O)N[C@@H](Cc2ccccc2)C(=O)N[C@@H](C(=O)O)C(C)(C)SSC1(C)C`, 7.18 µM.
With `C[C@H](c1ccc(O)cc1)[C@H](N)C(=O)N[C@H]1C(=O)NCC(=O)N[C@@H](Cc2ccccc2)C(=O)N[C@@H](C(=O)O)C(C)(C)SSC1(C)C` the figure was 3.4 µM.
